By IC50 is commonly meant the point on the concentration scale where inhibition reaches its midpoint. A lower IC50 goes with inhibition by little substance.

This is an account of results in ChEMBL document CHEMBL1155642, “In vitro antiplasmodial, antiamoebic, and cytotoxic activities of some monomeric isoquinoline alkaloids” (J Nat Prod, 2000).

Where a name gives a salt, the structure may show the parent alone. Calls of active or inactive are those of the source. No cut-off for these calls is given here.

The subject of one experiment is Plasmodium falciparum. Nature of the experiment: Antiplasmodial activity against multi drug-resistant Plasmodium falciparum K1 in erythrocytes by [3H]hypoxanthine uptake. It is filed as functional, organism-based.
The subject of experiment [1] is Entamoeba histolytica. As to the kind of experiment: Antiamoebic activity against Entamoeba histolytica NIH 200 after 72 hrs by microdilution technique. In kind it is functional, organism-based. Conditions: NIH 200, 72 h. (In general: In broth dilution the organism is exposed to a series of concentrations in liquid medium.)
In the next experiment the test system is KB. Nature of the experiment: Cytotoxicity against human KB cells after 72 hrs. In kind it is functional, cell-based.
The test system of experiment [2] is Entamoeba histolytica. As to the kind of experiment: Antiamoebic activity against Entamoeba histolytica NIH 200 in guinea pig at 3 mg/kg, po. More on the design: dose 3 mg/kg. In kind it is functional, organism-based.
The test system of experiment [3] is Entamoeba histolytica. Nature of the experiment: Antiamoebic activity against Entamoeba histolytica NIH 200 in guinea pig at 2 mg/kg, iv. On the set-up: dose 2 mg/kg. In kind it is functional, organism-based.

As to `COc1cc2c(cc1O)-c1cc3ccc(OC)c(OC)c3c[n+]1CC2` [COLUMBAMINE CHLORIDE], the IC50 with Plasmodium falciparum came to 1.92 µM; in the experiment with Entamoeba histolytica [1], 156 µM; in the experiment on KB, 77.9 µM.
On to `COc1cc2c3c(c1O)-c1c(ccc(OC)c1OC)C[C@@H]3NCC2` [NORCORYDINE], for which the IC50 is 3.08 µM in the experiment on Plasmodium falciparum, 76.4 µM in the experiment on Entamoeba histolytica [1] and over 733 µM in the experiment with KB.
As to `COc1c(O)ccc2cc3[n+](cc12)CCc1cc2c(cc1-3)OCO2` [THALIFENDINE], the IC50 with Plasmodium falciparum was 7.91 µM; in the experiment on Entamoeba histolytica [1], 116 µM; in the experiment on KB, over 699 µM.
Regarding `COc1cc2c3c(c1O)-c1c(ccc(OC)c1OC)C[C@@H]3N(C)CC2` [CORYDINE], the IC50 in the experiment with Plasmodium falciparum was 22.3 µM; in the experiment with Entamoeba histolytica [1], 90.6 µM; in the experiment with KB, over 733 µM.
Consider `COc1ccc2c(c1OC)CN(C)CCc1cc3c(cc1C(=O)C2)OCO3` [ALLOCRYPTOPINE], for which the IC50 with Plasmodium falciparum was 5.08 µM; in the experiment with Entamoeba histolytica [1] it was 135 µM; in the experiment with KB, over 338 µM.
Regarding `COc1cc2c(cc1O)CC[n+]1cc3c(OC)c(OC)ccc3cc1-2` [JATRORRHIZINE CHLORIDE], the IC50 in the experiment with Plasmodium falciparum was 3.15 µM; in the experiment with Entamoeba histolytica [1], 82.7 µM; with KB, over 335 µM.
On to `COC1=C[C@]23CCN(C)[C@H](Cc4cc(OC)c(OC)cc42)C3=CC1=O` [O-METHYLFLAVINANTINE], for which the IC50 in the experiment on Plasmodium falciparum is 207 µM; in the experiment with Entamoeba histolytica [1], 73.4 µM; with KB, over 734 µM.
As for `COc1ccc2c(c1O)-c1c(OC)c(OC)cc3c1[C@H](C2)N(C)CC3` [ISOCORYDINE], the values for the IC50 in the experiment on Plasmodium falciparum, in the experiment on Entamoeba histolytica [1] and with KB were 37 µM, over 147 µM and over 733 µM, respectively.
For the compound `COc1ccc2c(c1OC)-c1c(OC)c(OC)cc3c1[C@H](C2)NCC3` [CATALPIFOLINE], the half-inhibitory concentration (IC50) in the experiment with Plasmodium falciparum was 24.1 µM; in the experiment with Entamoeba histolytica [1], 147 µM; in the experiment on KB, over 733 µM.
For the compound `COc1ccc2c(c1OC)CN1CCc3cc4c(cc3[C@@H]1C2)OCO4` [CANADINE], the IC50 was over 147 µM with Plasmodium falciparum, 126 µM in the experiment on Entamoeba histolytica [1] and over 734 µM with KB.
On the same counts, the results for `COc1cc2c(cc1OC)-c1c3c(c(OC)c4c1[C@H](C2)N(C)CC4)OCO3` [OCOTEINE] are 34.8 µM, 51.2 µM and 74.3 µM.
For `COc1ccc2c(c1O)-c1c(O)c(OC)cc3c1[C@H](C2)[N+](C)(C)CC3` [MAGNOFLORINE IODIDE], the figures for the half-inhibitory concentration (IC50) in the experiment with Plasmodium falciparum, in the experiment on Entamoeba histolytica [1] and in the experiment with KB were over 107 µM, 111 µM and over 533 µM, respectively.
Consider `COc1cc2c(cc1O)CC[n+]1cc3cc(OC)c(OC)cc3cc1-2` [DEHYDRODISCRETINE CHLORIDE], for which the IC50 in the experiment on Plasmodium falciparum is 0.639 µM; with Entamoeba histolytica [1], 66.9 µM; with KB, over 335 µM.
Take `COc1cc2cc3c4c(c(OC)c5c(c4c2cc1OC)OCO5)CCN3C` [DEHYDROOCOTEINE]: the IC50 was 5.78 µM in the experiment with Plasmodium falciparum, 136 µM with Entamoeba histolytica [1] and over 341 µM in the experiment with KB.
`CC[C@H]1CN2CCc3cc(OC)c(OC)cc3[C@@H]2C[C@@H]1C[C@H]1NCCc2cc(OC)c(OC)cc21` [EMETINE HYDROCHLORIDE] gave a 50% inhibitory concentration (IC50) in the experiment on Entamoeba histolytica [1] of 2.23 µM.
With `COc1cc([C@@H]2c3cc4c(cc3[C@H](O)[C@H]3COC(=O)[C@H]23)OCO4)cc(OC)c1OC` [PODOFILOX], it took 0.008 µM to reach half-maximal inhibition with KB (IC50).
For `COc1ccc2c(c1OC)[C@]13CCC(=O)[C@]4(O)O[C@H]2C[C@]14N(C)CC3` [METAPHANINE HYDROBROMIDE], the IC50 was over 117 µM with Plasmodium falciparum, 58.6 µM in the experiment on Entamoeba histolytica [1] and over 586 µM with KB.
Consider `COC1=C[C@]23CCN(C)[C@H](Cc4ccc(OC)c(O)c42)C3=CC1=O` [SALUTARIDINE], for which the results for the 50% inhibitory concentration (IC50) in the experiment on Plasmodium falciparum, in the experiment on Entamoeba histolytica [1] and in the experiment with KB were over 95 µM, 76.4 µM and over 764 µM, respectively.
As for `COc1cc2c(cc1OC)-c1c3c(c(OC)c4ccnc(c14)C2=O)OCO3` [THALICMININE], the results for the IC50 in the experiment with Plasmodium falciparum, in the experiment on Entamoeba histolytica [1] and in the experiment on KB were 16.2 µM, 75.1 µM and over 685 µM, respectively.
For the compound `COc1ccc2cc3[n+](cc2c1OC)CCc1cc2c(cc1-3)OCO2` [BERBERINE CHLORIDE], the result in the experiment on Entamoeba histolytica [2] and in the experiment on Entamoeba histolytica [3] was Active. In addition, the results for the IC50 in the experiment on Plasmodium falciparum, in the experiment with Entamoeba histolytica [1] and in the experiment on KB were 0.968 µM, 111 µM and 7.32 µM, respectively.
As for `COC1=C[C@@H]2[C@@H]3Cc4ccc(OC)c(O)c4[C@]2(CCN3C)CC1=O` [SINOMENINE], the results for the IC50 with Plasmodium falciparum, with Entamoeba histolytica [1] and in the experiment on KB were over 152 µM, 56.2 µM and over 759 µM, respectively.
